Target: T1, Recombinant human KIF18A (1-467 His-tagged) protein (Homo sapiens, UniProt Q8NI77)
T1 construct: Recombinant human KIF18A (1-467 His-tagged) protein; His; made in house
Assay: KIF18A Enzyme Assay: microtubule-stimulated ATPase activity (ADP-Glo)
Assay type: biochemical
Conditions: 30 nM KIF18A, 75 μM ATP
Method in brief: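 Recombinant human KIF18A (1-467, His-tagged), baculovirus-expressed, assayed for microtubule-stimulated ATPase activity; ADP formed detected by ADP-Glo luminescence. Compounds tested as 22-point 2-fold serial dilutions in DMSO. IC50 from four-parameter logistic fit.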

T1 sequence (Q8NI77 1-467): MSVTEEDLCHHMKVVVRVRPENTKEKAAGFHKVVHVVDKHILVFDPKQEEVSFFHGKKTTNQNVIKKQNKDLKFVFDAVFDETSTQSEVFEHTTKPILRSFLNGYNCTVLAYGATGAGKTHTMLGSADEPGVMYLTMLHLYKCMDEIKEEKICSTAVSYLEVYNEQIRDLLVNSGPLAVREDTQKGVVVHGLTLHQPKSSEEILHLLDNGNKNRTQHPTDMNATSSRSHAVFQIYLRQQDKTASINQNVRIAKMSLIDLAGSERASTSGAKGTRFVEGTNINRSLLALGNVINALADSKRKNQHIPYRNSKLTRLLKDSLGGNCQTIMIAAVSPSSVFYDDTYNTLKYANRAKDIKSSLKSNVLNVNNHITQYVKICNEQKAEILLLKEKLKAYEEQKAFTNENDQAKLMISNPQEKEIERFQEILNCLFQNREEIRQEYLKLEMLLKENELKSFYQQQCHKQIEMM
T1 sequence (P02550 whole entry partner): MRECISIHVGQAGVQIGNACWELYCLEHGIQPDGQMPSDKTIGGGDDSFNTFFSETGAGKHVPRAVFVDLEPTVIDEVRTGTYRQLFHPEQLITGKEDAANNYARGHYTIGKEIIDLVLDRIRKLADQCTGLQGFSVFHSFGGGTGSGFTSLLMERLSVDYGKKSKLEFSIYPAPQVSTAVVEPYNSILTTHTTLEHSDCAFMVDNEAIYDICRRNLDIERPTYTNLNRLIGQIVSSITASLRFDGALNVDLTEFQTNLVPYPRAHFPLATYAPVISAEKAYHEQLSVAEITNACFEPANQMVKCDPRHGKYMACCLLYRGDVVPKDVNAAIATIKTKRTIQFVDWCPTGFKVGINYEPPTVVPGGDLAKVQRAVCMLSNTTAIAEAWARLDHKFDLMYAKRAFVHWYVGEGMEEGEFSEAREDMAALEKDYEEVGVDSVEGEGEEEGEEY
T1 sequence (P02554 whole entry partner): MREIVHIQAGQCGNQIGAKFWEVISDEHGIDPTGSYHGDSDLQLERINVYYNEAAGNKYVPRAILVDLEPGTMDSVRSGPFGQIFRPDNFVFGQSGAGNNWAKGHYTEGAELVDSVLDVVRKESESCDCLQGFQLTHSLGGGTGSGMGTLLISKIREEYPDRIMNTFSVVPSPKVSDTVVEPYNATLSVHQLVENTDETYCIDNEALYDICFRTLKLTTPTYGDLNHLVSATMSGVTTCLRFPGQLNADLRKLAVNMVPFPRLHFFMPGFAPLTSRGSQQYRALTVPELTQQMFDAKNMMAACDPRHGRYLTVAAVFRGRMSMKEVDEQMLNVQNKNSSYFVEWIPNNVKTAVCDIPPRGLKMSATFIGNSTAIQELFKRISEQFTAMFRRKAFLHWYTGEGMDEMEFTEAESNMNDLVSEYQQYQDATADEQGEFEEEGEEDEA

| Compound | IC50 [nM] |
| --- | --- |
| O=C(Nc1cccc(S(=O)(=O)C2CCCC2)c1)c1ccc(N[C@H]2CCOC2)nc1N1CCC2(CC1)CC2 [Example 103-16, (S)-N-(3-(cyclopentylsulfonyl)phenyl)-2-(6-azaspiro[2.5]octan-6-yl)-6-((tetrahydrofuran-3-yl)amino)nicotinamide] | 115 |
| C[C@H](O)CNc1ccc(C(=O)Nc2cccc(S(=O)(=O)C3CCCC3)c2)c(N2CCC3(CC2)CC3)n1 [Example 103-12, (S)-N-(3-(cyclopentylsulfonyl)phenyl)-6-((2-hydroxypropyl)amino)-2-(6-azaspiro[2.5]octan-6-yl)nicotinamide] | 65 |
| CC(C)(C)NS(=O)(=O)c1cccc(NC(=O)c2ccc(CS(C)(=O)=O)nc2N2CCC3(CC2)CC3)c1 [Example 113, N-(3-(N-(tert-butyl)sulfamoyl)phenyl)-6-((methylsulfonyl)methyl)-2-(6-azaspiro[2.5]octan-6-yl)nicotinamide] | 103 |
| CC(C)(CO)Nc1ccc(C(=O)Nc2cccc(N3CCS(=O)(=O)CC3)c2)c(N2CCC3(CC2)CC3)n1 [Example 105-28, N-(3-(1,1-dioxidothiomorpholino)phenyl)-6-((1-hydroxy-2-methylpropan-2-yl)amino)-2-(6-azaspiro[2.5]octan-6-yl)nicotinamide] | 162 |
| COc1cc(NC(=O)c2ccc(NC(C)(C)CO)nc2N2CCC3(CC2)CC3)cc(S(=O)(=O)NC(C)(C)C)c1 [Example 105-22, N-(3-(N-(tert-butyl)sulfamoyl)-5-methoxyphenyl)-6-((1-hydroxy-2-methylpropan-2-yl)amino)-2-(6-azaspiro[2.5]octan-6-yl)nicotinamide] | 134 |
| C[C@@H](O)CNc1ccc(C(=O)Nc2cccc(S(=O)(=O)C3CCCC3)c2)c(N2CCC3(CC2)CC3)n1 [Example 103-11, (R)-N-(3-(cyclopentylsulfonyl)phenyl)-6-((2-hydroxypropyl)amino)-2-(6-azaspiro[2.5]octan-6-yl)nicotinamide] | 76 |
| CC(C)(C)NS(=O)(=O)c1cccc(NC(=O)c2ccc([C@@](C)(O)CO)nc2N2CCC3(CC2)CC3)c1 (single isomer, unassigned) [Example 109-2] | 65 |
| CC(C)(C)NS(=O)(=O)c1cc(F)cc(NC(=O)c2ccc(NC(C)(C)CO)nc2N2CCC3(CC2)CC3)c1 [Example 105-21, N-(3-(N-(tert-butyl)sulfamoyl)-5-fluorophenyl)-6-((1-hydroxy-2-methylpropan-2-yl)amino)-2-(6-azaspiro[2.5]octan-6-yl)nicotinamide] | 108 |
| O=C(Nc1cccc(S(=O)(=O)C2CCCC2)c1)c1ccc(NCCCO)nc1N1CCC2(CC1)CC2 [Example 103-2, N-(3-(cyclopentylsulfonyl)phenyl)-6-((3-hydroxypropyl)amino)-2-(6-azaspiro[2.5]octan-6-yl)nicotinamide] | 47 |
| CC(C)(C)NS(=O)(=O)c1cccc(NC(=O)c2ccc(N3CC(C#N)C3)nc2N2CCC3(CC2)CC3)c1 [Example 102-11, N-(3-(N-(tert-butyl)sulfamoyl)phenyl)-6-(3-cyanoazetidin-1-yl)-2-(6-azaspiro[2.5]octan-6-yl)nicotinamide] | 159 |
| Cc1ccc(NC(=O)c2ccncc2N2CCC3(CC2)CC3)cc1C(=O)N1CCCC(F)(F)C1 [Example 115, N-(3-(3,3-difluoropiperidine-1-carbonyl)-4-methylphenyl)-3-(6-azaspiro[2.5]octan-6-yl)isonicotinamide] | 606 |
| CC(C)(CO)Nc1ccc(C(=O)Nc2cccc(S(=O)(=O)C3CCC3)c2)c(N2CCC3(CC2)CC3)n1 [Example 105-6, N-(3-(cyclobutylsulfonyl)phenyl)-6-((1-hydroxy-2-methylpropan-2-yl)amino)-2-(6-azaspiro[2.5]octan-6-yl)nicotinamide] | 28 |
| CCCC1CCN(c2ncccc2C(=O)Nc2cccc(S(=O)(=O)N3CCCCC3)c2)CC1 [Example 100-3, N-(3-(piperidin-1-ylsulfonyl)phenyl)-2-(4-propylpiperidin-1-yl)nicotinamide] | 656 |
| CC(C)(C)NS(=O)(=O)c1cccc(NC(=O)c2ccc(N[C@H]3CCC[C@H]3O)nc2N2CCC3(CC2)CC3)c1 [Example 102-19, N-(3-(N-(tert-butyl)sulfamoyl)phenyl)-6-(((1S,2R)-2-hydroxycyclopentyl)amino)-2-(6-azaspiro[2.5]octan-6-yl)nicotinamide] | 160 |
| CC(C)(C)NS(=O)(=O)c1cc(Br)cc(NC(=O)c2ccc(NC(C)(C)CO)nc2N2CCC3(CC2)CC3)c1 [Example 105-24, N-(3-bromo-5-(N-(tert-butyl)sulfamoyl)phenyl)-6-((1-hydroxy-2-methylpropan-2-yl)amino)-2-(6-azaspiro[2.5]octan-6-yl)nicotinamide] | 143 |
| Cc1ccc(NC(=O)c2cccnc2N2CCC(C)(C)CC2)cc1S(=O)(=O)N1CCCCC1 [Example 100-9, 2-(4,4-dimethylpiperidin-1-yl)-N-(4-methyl-3-(piperidin-1-ylsulfonyl)phenyl)nicotinamide] | 282 |

| Compound | IC50 [nM] |
| --- | --- |
| O=C(Nc1cccc(S(=O)(=O)NC2CCC2)c1)c1cccnc1N1CCC2(CC1)CC2 [Example 101-1, N-(3-(N-cyclobutylsulfamoyl)phenyl)-2-(6-azaspiro[2.5]octan-6-yl)nicotinamide] | 323 |
| CC(C)(O)CNc1ccc(C(=O)Nc2cccc(S(=O)(=O)C3CCCC3)c2)c(N2CCC3(CC2)CC3)n1 [Example 103, N-(3-(Cyclopentylsulfonyl)phenyl)-6-((2-hydroxy-2-methylpropyl)amino)-2-(6-azaspiro[2.5]octan-6-yl)nicotinamide] | 58 |
| CC1(NS(=O)(=O)c2cccc(NC(=O)c3ccc(NC4(CO)CC4)nc3N3CCC4(CC3)CC4)c2)CCC1 [Example 105-12, 6-((1-(hydroxymethyl)cyclopropyl)amino)-N-(3-(N-(1-methylcyclobutyl)sulfamoyl)phenyl)-2-(6-azaspiro[2.5]octan-6-yl)nicotinamide] | 105 |
| CC1(O)CN(c2ccc(C(=O)Nc3cccc(S(=O)(=O)NC(C)(C)C)c3)c(N3CCC4(CC3)CC4)n2)C1 [Example 102-13, N-(3-(N-(tert-butyl)sulfamoyl)phenyl)-6-(3-hydroxy-3-methylazetidin-1-yl)-2-(6-azaspiro[2.5]octan-6-yl)nicotinamide] | 196 |
| CC(C)(CO)Nc1ccc(C(=O)Nc2cccc(S(=O)(=O)C(F)(F)F)c2)c(N2CCC3(CC2)CC3)n1 [Example 105-5, 6-((1-hydroxy-2-methylpropan-2-yl)amino)-2-(6-azaspiro[2.5]octan-6-yl)-N-(3-((trifluoromethyl)sulfonyl)phenyl)nicotinamide] | 186 |
| CC(C)(C)Nc1ccc(C(=O)Nc2cccc(S(=O)(=O)C3CCCC3)c2)c(N2CCC3(CC2)CC3)n1 [Example 103-3, 6-(tert-butylamino)-N-(3-(cyclopentylsulfonyl)phenyl)-2-(6-azaspiro[2.5]octan-6-yl)nicotinamide] | 90 |
| Cc1ccc(NC(=O)c2ccc(NC(C)(C)CO)nc2N2CCC3(CC2)CC3)cc1-c1cccnc1 [Example 111-11, 6-((1-hydroxy-2-methylpropan-2-yl)amino)-N-(4-methyl-3-(pyridin-3-yl)phenyl)-2-(6-azaspiro[2.5]octan-6-yl)nicotinamide] | 306 |
| C[C@@H](CO)Nc1ccc(C(=O)Nc2cccc(S(=O)(=O)C3CCCC3)c2)c(N2CCC3(CC2)CC3)n1 [Example 103-9, (S)-N-(3-(cyclopentylsulfonyl)phenyl)-6-((1-hydroxypropan-2-yl)amino)-2-(6-azaspiro[2.5]octan-6-yl)nicotinamide] | 42 |
| C[C@@H]1CN(c2cc(NC(=O)c3ccc(NC(C)(C)CO)nc3N3CCC4(CC3)CC4)ccc2F)CCO1 [Example 105-31, (R)-N-(4-fluoro-3-(2-methylmorpholino)phenyl)-6-((1-hydroxy-2-methylpropan-2-yl)amino)-2-(6-azaspiro[2.5]octan-6-yl)nicotinamide] | 199 |
| O=C(Nc1ccc(F)c(C(=O)N2CCCC(F)(F)C2)c1)c1ccncc1N1CCC2(CC1)CC2 [Example 115-3, N-(3-(3,3-difluoropiperidine-1-carbonyl)-4-fluorophenyl)-3-(6-azaspiro[2.5]octan-6-yl)isonicotinamide] | 1670 |
| CC(C)(C)NS(=O)(=O)c1cc(NC(=O)c2ccc(NC(C)(C)CO)nc2N2CCC3(CC2)CC3)cc(C2CC2)c1 [Example 112-2, N-(3-(N-(tert-butyl)sulfamoyl)-5-cyclopropylphenyl)-6-((1-hydroxy-2-methylpropan-2-yl)amino)-2-(6-azaspiro[2.5]octan-6-yl)nicotinamide] | 633 |
| O=C(Nc1cccc(S(=O)(=O)NC2CC2)c1)c1cccnc1N1CCC2(CC1)CC2 [Example 101, N-(3-(N-cyclopropylsulfamoyl)phenyl)-2-(6-azaspiro[2.5]octan-6-yl)nicotinamide] | 517 |
| CC(C)(C)NS(=O)(=O)c1cccc(NC(=O)c2ccncc2N2CCC3(CC2)CC3)c1 [Example 114, N-(3-(N-(tert-butyl)sulfamoyl)phenyl)-3-(6-azaspiro[2.5]octan-6-yl)isonicotinamide] | 114 |
| O=C(Nc1cccc(S(=O)(=O)N2CCC(F)CC2)c1)c1cccnc1N1CCC2(CC1)CC2 [Example 100-8, N-(3-((4-fluoropiperidin-1-yl)sulfonyl)phenyl)-2-(6-azaspiro[2.5]octan-6-yl)nicotinamide] | 259 |
| CC(C)(C)NS(=O)(=O)c1cccc(NC(=O)c2ccc([C@](C)(O)CO)nc2N2CCC3(CC2)CC3)c1 (single isomer, unassigned) [Example 109-1] | 87 |
| CC(C)(C)NS(=O)(=O)c1cccc(NC(=O)c2ccc(NC3(CO)CCC3)nc2N2CCC3(CC2)CC3)c1 [Example 102-28, N-(3-(N-(tert-butyl)sulfamoyl)phenyl)-6-((1-(hydroxymethyl)cyclobutyl)amino)-2-(6-azaspiro[2.5]octan-6-yl)nicotinamide] | 71 |

Source: patent publication US12540129B2, “KIF18A inhibitors” (AMGEN INC., priority 2019, dated 2026)
